# Results reported in publication PMC7725459 (Science Advances, 2020).
# Legend:
# SARS-CoV-2 M^pro [1] = target: T1, SARS-CoV-2 M^pro (Severe acute respiratory syndrome coronavirus 2, UniProt P0DTD1); assay: Binding to SARS-CoV-2 M^pro using native mass spectrometry; conditions: 10 μM ligand, 4 mM DTT
# SARS-CoV-2 M^pro [2] = target: T1, SARS-CoV-2 M^pro; assay type: biochemical; conditions: versus GC-376
# SARS-CoV-2 HM-M^pro = SARS-CoV-2 HM-M^pro (Severe acute respiratory syndrome coronavirus 2, UniProt P0DTD1); assay type: binding
structure (smiles),measurement,setting,value
CC(C)C[C@H](NC(=O)OCc1ccccc1)C(=O)N[C@@H](CC(C)C)C(=O)N[C@@H](CC1CCNC1=O)C(=O)C(=O)NC1CC1 (stereo partly drawn) [UAWJ248],binding to M^pro by native mass spectrometry,SARS-CoV-2 M^pro [1],confirmed
same,fold more potent than GC-376 (k2/KI),SARS-CoV-2 M^pro [2],3.2 fold
same,"ΔTm shift, HM-M^pro construct",SARS-CoV-2 HM-M^pro,10.01 °C
